The results in this text go back to patent US12180207B2 (ARRAY BIOPHARMA INC., priority 2018, dated 2024).

Assay [1] has as its target recombinant human FGFR3 (amino acids R397-T806) (Homo sapiens (Human), UniProt P22607). As to the kind of experiment: FGFR3 enzyme activity assay (LanthaScreen TR-FRET). The class given is biochemical. Particulars: 25 μM ATP, 10 min incubation at 22° C., average of multiple determinations if made, read-out: FGFR3 Enz FRET IC50. The gist of the method: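 GST-HIS6-tagged human FGFR3 (R397-T806) was reacted with 100 nM Alexa Fluor 647-Poly-GT substrate and 25 μM ATP plus compound in HEPES/MgCl2/Triton buffer, pH 7.5, 2% DMSO, for 10 min at 22 °C.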
(Time-resolved FRET reads energy transfer from a long-lived donor to a nearby acceptor.)

In assay [2] the target is FGFR1 (SEQ ID NO: 1, amino acids 458-765) (Homo sapiens (Human), UniProt P11362). As to the kind of experiment: LC/MS FGFR1 kobs assay (covalent protein modification). Type of assay: binding. Particulars: 500 nM FGFR1, 3 μM compound. In a few lines: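 Covalent labeling of FGFR1 kinase domain (aa 458-765) tracked over time by intact-protein LC/MS after formic acid quench. kobs derived by fitting DMSO-normalized percent unmodified FGFR1 to an exponential decay model.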
Chain of FGFR1 (SEQ ID NO: 1, amino acids 458-765) (P11362 458-765): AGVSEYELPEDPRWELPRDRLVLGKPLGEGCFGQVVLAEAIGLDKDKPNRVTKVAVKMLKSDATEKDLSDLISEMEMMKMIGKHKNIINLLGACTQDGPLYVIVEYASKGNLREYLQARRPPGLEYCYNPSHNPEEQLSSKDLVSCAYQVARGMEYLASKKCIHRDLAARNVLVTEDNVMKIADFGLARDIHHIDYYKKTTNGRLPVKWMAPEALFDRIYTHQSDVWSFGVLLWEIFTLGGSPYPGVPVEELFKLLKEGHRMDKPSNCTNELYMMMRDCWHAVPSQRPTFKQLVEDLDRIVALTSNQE

For assay [3], the target named is recombinant human FGFR2 cytoplasmic domain (amino acids 403-822) (Homo sapiens (Human), UniProt P21802). Briefly: FGFR2 enzyme activity assay (LanthaScreen TR-FRET). Type of assay: biochemical. As to conditions: 15 μM ATP, 20 min incubation at 22° C., average of multiple determinations if made, read-out: FGFR2 Enz FRET IC50. The gist of the method: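 Substrate phosphorylation was read by TR-FRET using Eu-PY20 antibody (60 min, 22 °C) after a 20 min, 22 °C reaction. The reaction used 15 μM ATP, 100 nM fluorescent poly-GT peptide and His-tagged FGFR2 403-822 ([…]) at pH 7.5 with 2% DMSO.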
Chain of recombinant human FGFR2 cytoplasmic domain (amino acids 403-822) (P21802 402-821): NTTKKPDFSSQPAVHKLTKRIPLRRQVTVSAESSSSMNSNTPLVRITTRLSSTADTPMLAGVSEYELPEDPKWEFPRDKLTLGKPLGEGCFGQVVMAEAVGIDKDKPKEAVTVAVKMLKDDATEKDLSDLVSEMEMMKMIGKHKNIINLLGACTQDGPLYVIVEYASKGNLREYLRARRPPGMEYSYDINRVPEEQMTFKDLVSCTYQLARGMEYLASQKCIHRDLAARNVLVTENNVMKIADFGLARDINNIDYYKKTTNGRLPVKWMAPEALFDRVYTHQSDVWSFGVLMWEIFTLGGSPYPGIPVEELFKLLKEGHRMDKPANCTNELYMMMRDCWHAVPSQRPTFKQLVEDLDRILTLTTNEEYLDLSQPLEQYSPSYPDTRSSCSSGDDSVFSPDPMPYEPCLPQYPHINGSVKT

Assay [4] deals with FGFR3 (SEQ ID NO: 5, amino acids 449-759) (Homo sapiens (Human), UniProt P22607). Briefly: LC/MS FGFR3 kobs assay (covalent protein modification). Type of assay: binding. As to conditions: 500 nM FGFR3, 3 μM compound. In a few lines:
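Each time-point sample was quenched in 0.4% formic acid and analyzed by Q-TOF LC/MS. Deconvoluted signals gave percent modified and unmodified protein, normalized to the DMSO control, and the decay of unmodified protein yielded kobs.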

Chain of recombinant human FGFR3 (amino acids R397-T806) (P22607 397-806): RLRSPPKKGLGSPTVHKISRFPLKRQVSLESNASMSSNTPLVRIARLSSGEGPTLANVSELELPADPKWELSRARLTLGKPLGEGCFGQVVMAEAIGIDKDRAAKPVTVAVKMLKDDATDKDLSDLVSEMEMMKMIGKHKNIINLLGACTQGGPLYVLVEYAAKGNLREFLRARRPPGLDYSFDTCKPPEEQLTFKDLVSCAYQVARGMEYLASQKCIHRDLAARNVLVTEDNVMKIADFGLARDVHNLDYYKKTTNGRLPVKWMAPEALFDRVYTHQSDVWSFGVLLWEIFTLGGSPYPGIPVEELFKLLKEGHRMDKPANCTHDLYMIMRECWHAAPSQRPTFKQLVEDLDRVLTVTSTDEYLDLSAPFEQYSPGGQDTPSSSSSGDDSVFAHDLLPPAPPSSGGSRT
Chain of FGFR3 (SEQ ID NO: 5, amino acids 449-759) (P22607 449-759): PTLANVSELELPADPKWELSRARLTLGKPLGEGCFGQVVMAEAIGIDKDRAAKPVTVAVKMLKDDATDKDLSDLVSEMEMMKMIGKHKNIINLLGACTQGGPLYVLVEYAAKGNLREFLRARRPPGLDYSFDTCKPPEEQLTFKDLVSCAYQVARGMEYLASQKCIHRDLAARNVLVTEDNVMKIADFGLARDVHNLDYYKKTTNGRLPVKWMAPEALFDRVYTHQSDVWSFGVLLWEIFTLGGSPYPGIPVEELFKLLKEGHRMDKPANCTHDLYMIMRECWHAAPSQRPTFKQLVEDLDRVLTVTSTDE

On to `C=CC(=O)N1CC2(CCN(C(=O)N3CCC(n4cc(-c5cc(OC)c6c(C#N)cnn6c5)cn4)CC3)CC2)C1` [Example 6, 6-(1-(1-(2-acryloyl-2,7-diazaspiro[3.5]nonane-7-carbonyl)piperidin-4-yl)-1H-pyrazol-4-yl)-4-methoxypyrazolo[1,5-a]pyridine-3-carbonitrile], for which the IC50 in assay [1] and in assay [3] was 4 nM each time. Further, in assay [2], the “FGFR1 Enz kobs” value worked out at 0.00093 min⁻¹. Also, the “FGFR3 Enz kobs” value in assay [4] was determined as 0.00902 min⁻¹.
Regarding `C=CC(=O)N1C[C@H]2CN(C(=O)N3CCC(n4cc(-c5cc(OC)c6c(C#N)cnn6c5)cn4)CC3)C[C@H]21` [Example 7, 6-(1-(1-((1S,5S)-6-acryloyl-3,6-diazabicyclo[3.2.0]heptane-3-carbonyl)piperidin-4-yl)-1H-pyrazol-4-yl)-4-methoxypyrazolo[1,5-a]pyridine-3-carbonitrile], the IC50 in assay [1] amounted to 2 nM; in assay [3], 6 nM. In addition, the “FGFR1 Enz kobs” value in assay [2] is 0.00042 min⁻¹. In addition, the “FGFR3 Enz kobs” value in assay [4] was 0.00305 min⁻¹.
In the same order, the values of `C=CC(=O)N1CC2(CCN(C(=O)N3CCC(n4cc(-c5cc(OC)c6c(C#N)cnn6c5)cn4)CC3)C2)C1` [Example 8, 6-(1-(1-(2-acryloyl-2,6-diazaspiro[3.4]octane-6-carbonyl)piperidin-4-yl)-1H-pyrazol-4-yl)-4-methoxypyrazolo[1,5-a]pyridine-3-carbonitrile] are 3 nM, 7 nM, 0.00124 min⁻¹ and 0.01122 min⁻¹.
On the same counts, the results for `C=CC(=O)Nc1ccc(CN2CCC(n3cc(-c4cc(OC)c5c(C#N)cnn5c4)cn3)CC2)cc1` [Example 9, N-(4-((4-(4-(3-cyano-4-methoxypyrazolo[1,5-a]pyridin-6-yl)-1H-pyrazol-1-yl)piperidin-1-yl)methyl)phenyl)acrylamide] are 4 nM, 5 nM, 0.0059 min⁻¹ and 0.02298 min⁻¹.
Regarding `C=CC(=O)N(C)c1ccc(CN2CCC(n3cc(-c4cc(OC)c5c(C#N)cnn5c4)cn3)CC2)cc1` [Example 10, N-(4-((4-(4-(3-cyano-4-methoxypyrazolo[1,5-a]pyridin-6-yl)-1H-pyrazol-1-yl)piperidin-1-yl)methyl)phenyl)-N-methylacrylamide], the IC50 in assay [1] and in assay [3] was 6 nM throughout. Also, the “FGFR1 Enz kobs” value in assay [2] was 0.0034 min⁻¹. Besides, the “FGFR3 Enz kobs” value in assay [4] was 0.01566 min⁻¹.
`C=CC(=O)N1CCC(n2cc(-c3cc(OC)c4c(C#N)cnn4c3)cn2)CC1` [Example 11, 6-(1-(1-acryloylpiperidin-4-yl)-1H-pyrazol-4-yl)-4-methoxypyrazolo[1,5-a]pyridine-3-carbonitrile]: the IC50 in assay [1] and in assay [3] was 7 nM throughout. The “FGFR1 Enz kobs” value in assay [2] turned out to be 0.0002 min⁻¹. In assay [4], the “FGFR3 Enz kobs” value turned out to be 0.00206 min⁻¹.
With `C=CC(=O)N1CCC(F)(C(=O)N2CCC(n3cc(-c4cc(OC)c5c(C#N)cnn5c4)cn3)CC2)CC1` [Example 13, 6-(1-(1-(1-acryloyl-4-fluoropiperidine-4-carbonyl)piperidin-4-yl)-1H-pyrazol-4-yl)-4-methoxypyrazolo[1,5-a]pyridine-3-carbonitrile], the IC50 is 3 nM in assay [1] and 2 nM in assay [3]. Also, the “FGFR1 Enz kobs” value in assay [2] was found to be 0.00056 min⁻¹. The “FGFR3 Enz kobs” value in assay [4] stood at 0.00418 min⁻¹.
In the same order, the values of `C=CC(=O)N1CC(C(=O)N2CCC(n3cc(-c4cc(OC)c5c(C#N)cnn5c4)c(CC)n3)CC2)C1` [Example 97, 6-(1-(1-(1-acryloylazetidine-3-carbonyl)piperidin-4-yl)-3-ethyl-1H-pyrazol-4-yl)-4-methoxypyrazolo[1,5-a]pyridine-3-carbonitrile] are 72 nM, 38 nM, 0.00276 min⁻¹ and 0.01865 min⁻¹.

The IC50 is the concentration needed to halve the response being measured.
